# Measured values as given in PMC6070976, “Interaction of Ochratoxin A and Its Thermal Degradation Product 2′R-Ochratoxin A with Human Serum Albumin” (Toxins, 2018).
# Tests used:
# [1] = biological target: T1, human serum albumin (HSA) (Homo sapiens, UniProt P02768); assay: fluorescence quenching/enhancement and anisotropy titrations; also equilibrium dialysis, HSA affinity chromatography, CD; assay type: binding; conditions: read-out: logK (Hyperquad, Figure 3) (converted)
# T1 construct: gene ALB
# T1 sequence (P02768 25-609): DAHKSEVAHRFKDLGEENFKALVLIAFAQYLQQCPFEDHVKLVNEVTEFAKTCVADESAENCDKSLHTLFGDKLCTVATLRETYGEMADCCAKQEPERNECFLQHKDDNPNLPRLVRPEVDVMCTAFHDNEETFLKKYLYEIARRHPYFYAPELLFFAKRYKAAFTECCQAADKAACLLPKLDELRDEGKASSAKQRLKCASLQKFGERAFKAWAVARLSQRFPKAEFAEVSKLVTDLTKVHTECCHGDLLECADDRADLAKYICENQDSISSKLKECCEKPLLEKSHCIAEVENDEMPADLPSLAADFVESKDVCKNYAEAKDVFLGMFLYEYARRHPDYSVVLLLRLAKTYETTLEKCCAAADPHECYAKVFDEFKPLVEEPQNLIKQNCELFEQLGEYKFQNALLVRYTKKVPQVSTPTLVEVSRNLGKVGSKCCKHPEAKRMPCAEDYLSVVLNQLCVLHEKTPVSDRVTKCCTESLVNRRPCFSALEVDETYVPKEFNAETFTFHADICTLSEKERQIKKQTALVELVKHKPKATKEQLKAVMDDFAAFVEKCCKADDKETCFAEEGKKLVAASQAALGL
# [2] = biological target: T1, human serum albumin (HSA); assay: equilibrium dialysis; also fluorescence titrations and anisotropy, HSA affinity chromatography, CD; assay type: binding; conditions: read-out: % bound
SMILES,Kd [1] [nM],fraction unbound [2]
"C[C@@H]1Cc2c(Cl)cc(C(=O)N[C@H](Cc3ccccc3)C(=O)O)c(O)c2C(=O)O1 [2′R-OTA, 2′R-Ochratoxin A]",589,
"C[C@@H]1Cc2c(Cl)cc(C(=O)N[C@@H](Cc3ccccc3)C(=O)O)c(O)c2C(=O)O1 [OTA, Ochratoxin A]",,< 0.004
